According to ChEMBL document CHEMBL1201862, “PubChem BioAssay data set” (2004):
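Values below derive from 48-hour exposures of cells grown in 96-well plates, with endpoints linearly interpolated between the two concentrations bracketing the appropriate inhibition level. GI50 = concentration required for 50% inhibition of growth.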 Calls of active or inactive are those of the source. Cut-off read from the data, not from the text of the source: active = GI50 up to about 1.1 µM and inactive = higher.

What was measured:
Test in all cases: inhibition of tumour cell growth, NCI panel, 48 h
[1] = test system: CAKI-1
[2] = test system: CCRF-CEM
[3] = test system: EKVX
[4] = test system: HCC 2998
[5] = test system: HCT-15
[6] = test system: Malme-3M
[7] = test system: OVCAR-3
[8] = test system: OVCAR-4
[9] = test system: OVCAR-5
[10] = test system: SF-295
[11] = test system: SK-MEL-5
[12] = test system: SK-OV-3
[13] = test system: SN12C
[14] = test system: SNB-19
[15] = test system: SNB-78
[16] = test system: UACC-62
[17] = test system: UO-31
[18] = test system: Hs-578T
[19] = test system: MCF7
[20] = test system: PC-3

Measured: GI50

CC(=O)CC(=O)Nc1ccc(OS(N)(=O)=O)cc1
inactive: [1] > 100 µM | [2] > 100 µM | [3] > 100 µM | [4] > 100 µM | [6] > 100 µM | [7] > 100 µM | [8] > 100 µM | [9] > 100 µM | [10] > 100 µM | [11] > 100 µM | [12] > 100 µM | [13] > 100 µM | [14] > 100 µM | [15] > 100 µM | [16] > 100 µM | [17] > 100 µM
> 100 µM: [5]

COc1c(CC=C(C)C)c(O)c(C(CC(C)C)c2c(O)c(CC=C(C)C)c(O)c(C(C)=O)c2O)c(O)c1C(C)=O (centres undefined)
inactive: [1] 1.21 µM | [7] 1.15 µM | [8] 1.44 µM | [9] 4.9 µM | [12] 2.08 µM | [14] 1.15 µM | [15] 1.7 µM | [17] 3.08 µM
active: [2] 0.278 µM | [3] 1.04 µM | [4] 0.537 µM | [18] 1.07 µM | [19] 0.385 µM | [6] 0.638 µM | [20] 0.305 µM | [10] 0.521 µM | [11] 0.482 µM | [13] 0.469 µM | [16] 0.527 µM
0.4 µM: [5]

COc1ccc2c(c1)[n+]([O-])c(C(=O)CC(=O)C(=O)Nc1cccc(C)c1C)c(C)[n+]2[O-]
inactive: [1] > 100 µM | [2] > 100 µM | [3] > 100 µM | [4] > 100 µM | [6] > 100 µM | [7] > 100 µM | [8] > 100 µM | [9] > 100 µM | [10] > 100 µM | [11] > 100 µM | [12] > 100 µM | [13] > 100 µM | [14] > 100 µM | [15] > 100 µM | [16] > 100 µM | [17] > 100 µM
> 100 µM: [5]

CC(=S)NNC(=O)c1ccncc1
inactive: [1] > 100 µM | [2] > 100 µM | [3] > 100 µM | [4] > 100 µM | [6] > 100 µM | [7] > 100 µM | [8] > 100 µM | [9] > 100 µM | [10] > 100 µM | [11] > 100 µM | [12] > 100 µM | [13] > 100 µM | [14] > 100 µM | [15] > 100 µM | [16] > 100 µM | [17] > 100 µM
> 100 µM: [5]

C[C@]12CC[C@H](O)CC1=CC[C@@H]1C2CC[C@]2(C)C(=O)NC(=O)CC12 (some centres undefined)
> 100 µM: [5]
inactive: [1] > 100 µM | [2] 35.4 µM | [3] > 100 µM | [4] > 100 µM | [6] 92.5 µM | [7] > 100 µM | [8] > 100 µM | [9] > 100 µM | [10] > 100 µM | [11] > 100 µM | [12] > 100 µM | [13] 69 µM | [14] > 100 µM | [15] > 100 µM | [16] > 100 µM | [17] > 100 µM

CCOC(=O)/C(=C\c1ccc(OCc2ccccc2)c(OC)c1)C(=O)c1ccccc1
20.4 µM: [5]
inactive: [1] 24.7 µM | [2] 23.6 µM | [3] 27.4 µM | [4] 36.1 µM | [6] 16.7 µM | [7] 22 µM | [8] 36 µM | [9] 20.7 µM | [10] 22.3 µM | [11] 17.9 µM | [12] 64.9 µM | [13] 23 µM | [14] 27.7 µM | [15] 31.3 µM | [16] 23.3 µM | [17] 18.1 µM

CC(CC[C@@H](C)C1CCC2[C@@H]3CC(O)C4CC(O)[C@@H](O)C[C@]4(C)C3CC[C@@]21C)C(C)(C)C (some centres undefined)
> 100 µM: [5]
inactive: [1] > 100 µM | [2] > 100 µM | [3] > 100 µM | [4] > 100 µM | [6] > 100 µM | [7] > 100 µM | [8] > 100 µM | [9] > 100 µM | [10] > 100 µM | [11] > 100 µM | [12] > 100 µM | [13] > 100 µM | [14] > 100 µM | [15] > 100 µM | [16] > 100 µM | [17] > 100 µM

C=C(c1ccccc1)[C@@]1(O)CCCC[C@H]1NC(c1ccccc1)c1ccccc1
10.9 µM: [5]
inactive: [1] 7.67 µM | [2] 4.34 µM | [3] 15.3 µM | [4] 12.6 µM | [6] 16.1 µM | [7] 12.1 µM | [8] 14.1 µM | [9] 13.6 µM | [10] 12.1 µM | [11] 9.51 µM | [12] 19.1 µM | [13] 14 µM | [14] 15.7 µM | [15] 19.7 µM | [16] 13.1 µM | [17] 14.5 µM
